Key:
[1] = Single ascending dose (SAD) study, plasma PK; type: in vivo, human; settings: for AUC0-t / AUC0-∞ / Cmax / MRT0-∞ / λz: mean (%CV); for t1/2: mean ± SD; for Tmax: median (range)
Method: For the MAD and food-effect studies, the doses were chosen according to the PK and safety results of the SAD study. […] The tablets were administered from the lowest dosage. The next highest dose level was initiated based on PK characteristics and a 5-day safety observation of the previous dose by the investigators and sponsors. […] This study included two groups: one group under feeding conditions (a high-fat diet comprising 110 g of boiled eggs, 240 mL of milk, 20 g of bacon, 20 g of butter, 50 g of toast, 10 g of salad oil, and 115 g of chips consumed within 30 min before dosing) and one group under fasting conditions. […] Interventions for all cohorts, except the 200 mg cohort, were conducted at the First Hospital of Jilin University (Changchun, China). The randomization lists were created using the PLAN statistical procedure in SAS 9.4 software (SAS Institute, Cary, NC, USA). Throughout the study, unblinding was only used in the event of SAEs or other emergency situations; otherwise, blinding was maintained for investigators, participants, and sponsors until the study’s completion.
For the SAD, food-effect, and DDI studies, blood samples were collected before dose administration and at 15 min, 30 min, and 1, 1.5, 2, 3, 4, 6, 8, 12, 24, 36, 48, 72, and 96 h after dose administration. We used collection tubes containing the anticoagulant EDTA for PK assessments. In the MAD study, blood samples were obtained on day 1 at 0 h, 15 min, 30 min, and 1, 1.5, 2, 3, 4, 6, 8, and 12 h after dosing; on days 2–4; and on day 5 at 0 h, 15 min, 30 min, and 1, 1.5, 2, 3, 4, 6, 8, 12, 24, 36, 48, 72, and 96 h after dosing. The […] samples were subsequently centrifuged at 1,300 × g for 10 min at 2–8°C. For the food-effect component, urine samples were collected in tubes containing 0.01% Triton X-100 at the following intervals: 0, 0–6, 6–12, 12–24, 24–48, 48–72, 72–96, 96–120, 120–144, 144–168, and 168–192 h after administration. Fecal samples were collected from 0 h to 192 h after the first dose. All the samples were stored at −80°C.
The standard curve concentrations ranged from 5 to 5,000 ng/mL, 10 to 10,000 ng/mL, and 5 to 5,000 µg/g in the plasma, urine, and fecal samples, respectively. The lower limits of quantification were 5.00 ng/mL, 10.00 ng/mL, and 5.00 µg/g for the plasma, urine, and fecal samples, respectively.
The noncompartmental model (Phoenix WinNonlin ver. 8.2.2.227, Certara, Princeton, USA) was used to calculate the PK parameters: time to maximum observed plasma concentration (Tmax); maximum observed plasma concentration (Cmax); area under the concentration-time curve from the time of dosing to the last time point with measurable plasma concentrations of drug (AUC0-t); AUC from the time of dosing extrapolated to infinity (AUC0-∞); terminal elimination half-life of the drug in plasma (t1/2); clearance (CL/F); volume (Vz/F); terminal phase elimination rate constant (λz); and mean retention time (MRT). The power model was used to evaluate the relationship between PK parameters and the dose level, expressed as ln (PK parameter) = ln (α) + β * ln (dose), where ln (α) is the intercept of the transformed linear regression equation and β is the slope. Upon calculating the 90% CI of β, if the entire 90% CI of β falls within the judgment interval, the PK parameters can be deemed linearly related to the dosage.

[2] = 12-lead ECG QTcF assessment and C-QT model; type: in vivo, human
Method: To evaluate the cardiotoxicity of the drug, 12-lead ECG was conducted at several time points: 0 h, 1 h, 2 h, 4 h, 24 h, 48 h, 72 h, and 96 h after dosing in the SAD, food-effect, and DDI studies. In the MAD study, 12-lead ECG data were collected on day 1 (0 h, 1 h, 2 h, 4 h, and 8 h after dosing) and on day 5 (0 h, 1 h, 2 h, 4 h, 24 h, 48 h, 72 h, and 96 h after dosing), as well as before dosing and 2 h after dosing on days 2–4. Three consecutive ECGs were performed at each of these time points. The QT interval was corrected using the Fridericia formula [QTcF = QT / (RR^0.33), where RR = 60/heart rate]. Descriptive statistics were applied to the number of participants with abnormal changes in QTcF after dosing compared to baseline, including: (i) absolute value of QTcF >450 ms; (ii) absolute value of QTcF >500 ms; (iii) 30 ms < ΔQTcF ≤ 60 ms; (iv) ΔQTcF >60 ms (ΔQTcF = QTcF after dosing − baseline).

[3] = Preclinical toxicology, NOAEL in dogs; type: in vivo; settings: from dog NOAEL, at 60 kg body weight
[4] = Exposure-response analysis of adverse events (logistic regression); design: species or system human
Excerpt: For safety analysis, we also employed an exposure-response analysis method that included four binary outcomes: any adverse drug reaction (ADR), hypertriglyceridemia, hyperuricemia, and elevated creatinine levels. The exposure levels were derived by simulating individual parameter estimates from a population PK model ([23]), which generated dense sampling drug concentration-time curves. The noncompartmental analysis was subsequently performed using the PKNCA package in R software ver. 4.3 to calculate the area under the concentration-time curve over 24 h (AUC0-24) using the trapezoidal method and the maximum blood drug concentration within 24 h (Cmax).
logit(P(Yi=1))=β0+β1⋅log(Xi)
In this context, Xi represents the exposure (AUC0-24 and Cmax) of the ith subject, β0 denotes the intercept, and β1 indicates the coefficient for exposure. P(Yi = 1) represents the probability of AE occurrence, with logit referring to the logistic transformation.

[5] = rats; preclinical animal studies; cited from earlier work

For O=C(NC1CCCC1)C(=O)[C@H](C[C@@H]1CCNC1=O)NC(=O)[C@@H]1[C@H]2CCC[C@H]2CN1C(=O)[C@@H](NC(=O)C(F)(F)F)C1CCCCC1 [RAY1216, leritrelvir], the AUC0-t ([1]; 200 mg single dose) was 5,510 (22.7) ng·h/mL, the “AUC0-∞” value ([1]; 200 mg single dose) was 5,550 (22.7) ng·h/mL and the Cmax ([1]; 200 mg single dose) was 1,270 (42) ng/mL. The “MRT0-∞” value ([1]; 200 mg single dose) was 5.01 (13.5) h, the λz ([1]; 200 mg single dose) was 0.214 (6.2) h^−1 and the t1/2 ([1]; 200 mg single dose) was 3.25 ± 0.202 h. For the same compound, the Tmax ([1]; 200 mg single dose) was 1.5 (0.5, 2.0) h, the AUC0-t ([1]; 400 mg single dose) was 11,700 (45.8) ng·h/mL and the “AUC0-∞” value ([1]; 400 mg single dose) was 11,700 (45.6) ng·h/mL. The Cmax ([1]; 400 mg single dose) was 2,250 (53.8) ng/mL, the “MRT0-∞” value ([1]; 400 mg single dose) was 6.05 (9.9) h and the λz ([1]; 400 mg single dose) was 0.172 (36) h^−1. For the same compound, the t1/2 ([1]; 400 mg single dose) was 4.83 ± 2.86 h, the Tmax ([1]; 400 mg single dose) was 1.3 (1.0, 4.0) h and the AUC0-t ([1]; 800 mg single dose) was 16,200 (18.7) ng·h/mL. For the same compound, the “AUC0-∞” value ([1]; 800 mg single dose) was 16,300 (18.8) ng·h/mL, the Cmax ([1]; 800 mg single dose) was 3,590 (20.2) ng/mL and the “MRT0-∞” value ([1]; 800 mg single dose) was 6.75 (38.2) h. The λz ([1]; 800 mg single dose) was 0.128 (73.6) h^−1, the t1/2 ([1]; 800 mg single dose) was 10.3 ± 9.72 h and the Tmax ([1]; 800 mg single dose) was 1.5 (1.0, 3.0) h. The AUC0-t ([1]; 1,600 mg single dose) was 29,100 (24.1) ng·h/mL, the “AUC0-∞” value ([1]; 1,600 mg single dose) was 29,100 (24.1) ng·h/mL and the Cmax ([1]; 1,600 mg single dose) was 6,180 (20.1) ng/mL. For the same compound, the “MRT0-∞” value ([1]; 1,600 mg single dose) was 5.94 (13.4) h, the λz ([1]; 1,600 mg single dose) was 0.139 (22.4) h^−1 and the t1/2 ([1]; 1,600 mg single dose) was 5.22 ± 1.16 h. For the same compound, the Tmax ([1]; 1,600 mg single dose) was 1.5 (1.0, 4.0) h, the “participants with absolute value of QTcF exceeding 450 ms” value ([2]; 700 mg combined with ritonavir BID group) was “one” and the “mean ΔΔQTcF” value ([2]; 700 mg combined with ritonavir BID, at average Cmax 9280 ng/mL, C-QT model, 90% CI: −1.6526–7.0164) was 2.6819 ms. The “correlation between drug concentration and the QT interval” value ([2]; C-QT model analysis) was “no significant correlation”, the “participants exceeding a ΔQTcF of 60 ms” value ([2]; all cohorts) was “no participants” and the “upper limit of the 90% CI for the average ΔΔQTcF” value ([2]; at the average Cmax concentration in each cohort, C-QT model predicted) was “less than 10 ms”. The human equivalent dose [3] was ~21,000 mg/day, the “exposure-response relationship of ADRs, hypertriglyceridemia, hyperuricemia, elevated creatinine with exposure (AUC0-24, Cmax)” value [4] was “no significant dose-response relationship” and the “no-observed-adverse-effect level (NOAEL)” value [5] was 900 mg/kg/day.
